Measurements published in PubChem BioAssay AID2060904 (Molecular Pharmacology Branch, DTP, NCI, 2025).
Blank lines part the entries; values can stand above or below the molecule they belong to.

Tested on: 349418-098-R-PDC complex spheroid viability
Experiment: Anticancer human tumor 349418-098-R-PDC patient-derived lung adenocarcinoma cell line growth inhibition [RAS]
Settings: for viability, T/C: stronger effect = lower value
Source text: RAS pathway inhibitors in Combinations in Complex Spheroids
A high-throughput screen of multi-cell type tumor spheroids was designed to identify active combinations of RAS pathway inhibitors and targeted small molecules. Complex spheroids include a stromal component modeled by human endothelial cells (HUVEC) and fibroblasts modeled by human mesenchymal stem cells (MSCs). The concentration ranges selected for each drug and investigational agent were based upon clinically achievable concentrations if the clinical Cmax of the agent was known.
Compounds. The drugs and investigational agents: abemaciclib (NSC768073), cobimetinib (NSC768068), divarasib (GDC6063, NSC841802), docetaxel (NSC628503), GDC-1971 (RLY-1971, NSC841576), gemcitabine (NSC613327), inavolisib (NSC800729), ipatasertib (NSC767898), KB-0742 (NSC834161), MRTX-1133 (NSC836407), osimertinib (NSC779217), RMC-4630 (NSC839698), RMC-6236 (NSC851965), RMC-6291 (NSC852671), Ro-3306 (NSC812927), sapanisertib (NSC764658), SN-38 (NSC673596), staurosporine (NSC755774), SY5609 (NSC837396), and tovorafenib (DAY101, NSC766906), were obtained from the National Cancer Institute (NCI) Developmental Therapeutics Program Chemical Repository. The FDA-approved anticancer drug set is available from the NCI Developmental Therapeutics Program. […] The stock solutions were prepared in dimethyl sulfoxide (DMSO, Sigma-Aldrich, St. Louis, MO, cat. D2650) at 800-fold the tested concentration and stored at -70 degrees C prior to their use. All drugs and investigational agents were tested over a range starting from a high concentration at or near the clinical Cmax and decreasing in half-log increments. If the clinical Cmax for an agent had not been determined, the highest concentration tested was 10 microM.
Cell Culture. All cells were maintained in an incubator at 37 degrees C and 5% CO2 with 95% humidity. The PDC lines were cultured according to standard operating procedures established by the NCI PDMR. All PDCs were thawed and cultured in Matrigel-coated flasks prepared with a working solution of 1X Ham's F-12 nutrient mix, without supplementation (Invitrogen, Waltham, MA, cat. 11765054), 100 U/mL penicillin-streptomycin (Invitrogen, cat. 15140122), and 2.5% Matrigel (Corning Inc., Corning, NY, cat. 354248) for the first three passages. The 362531-283-R-J2-PDC and 782815-120-R-J1-PDC lines were cultured in 6C/Colon 1B media, which includes advanced DMEM/F-12 (Thermo Fisher Scientific, cat. 12634028), 10 mM HEPES (Thermo Fisher Scientific, cat. 15630080), 1X GlutaMAX supplement (Thermo Fisher Scientific, cat. 35050061), 0.1 mg/mL primocin (InvivoGen, San Diego, CA, cat. ant-pm-2), 10% defined fetal bovine serum, heat inactivated (HyClone Laboratories Inc., Logan, UT, cat. SH30070.03HI), 50% L-WRN conditioned media (ATCC, cat. CRL-3276), 1.25 mM N-Acetyl-L-cysteine (Sigma-Aldrich, cat. A9165), 10 mM nicotinamide (Sigma-Aldrich, cat. N0636), 1X B-27 supplement (Thermo Fisher Scientific, cat. 17504044), 1X N-2 supplement (Thermo Fisher Scientific, cat. 17502048), 50 ng/mL human EGF (Thermo Fisher Scientific, cat. PHG0311), and 10 microM Y-27632 dihydrochloride (Tocris Bioscience, cat. 1254). The K12877-001-R-J1-PDC line was cultured in 6I media, which includes all 6C/Colon 1B media plus 10 ng/mL human FGF-10 (PeproTech, cat. 100-26), 1 ng/mL human FGF-2 (PeproTech, cat. 100-18B), 1 µM prostaglandin E2 (Tocris Bioscience, cat. 2296), […] hydrocortisone (Sigma-Aldrich, cat. H4001), and […] bovine insulin (Sigma-Aldrich, cat. I6634). The K86415-001-R-J1-PDC line was cultured in 6D media, which includes all 6C/Colon 1B media components minus the L-WRN conditioned media. The 485176-168-R4-J1-PDC was cultured in PANC media, which includes all 6C/Colon 1B media plus 100 ng/mL human FGF-10 (PeproTech, cat. 100-26), 500 nM SB-431542 (Selleckchem, cat. S1067), and 10 nM gastrin (Tocris Bioscience, cat. 3006). […]

[1] = curve of first compound, second compound 0.000949 µM
[2] = curve of first compound, second compound 0.003 µM
[3] = curve of first compound, second compound 0.00949 µM
[4] = curve of first compound, second compound 0.03 µM
[5] = curve of first compound, second compound 0.0949 µM
[6] = curve of first compound, second compound 0.3 µM
[7] = second compound 0.000949 µM, first compound 0.0316 µM
[8] = second compound 0.000949 µM, first compound 0.1 µM
[9] = second compound 0.000949 µM, first compound 0.316 µM
[10] = second compound 0.000949 µM, first compound 1 µM
[11] = second compound 0.000949 µM, first compound 3.16 µM
[12] = second compound 0.000949 µM, first compound 10 µM
[13] = second compound 0.003 µM, first compound 0.0316 µM
[14] = second compound 0.003 µM, first compound 0.1 µM
[15] = second compound 0.003 µM, first compound 0.316 µM
[16] = second compound 0.003 µM, first compound 1 µM
[17] = second compound 0.003 µM, first compound 3.16 µM
[18] = second compound 0.003 µM, first compound 10 µM
[19] = second compound 0.00949 µM, first compound 0.0316 µM
[20] = second compound 0.00949 µM, first compound 0.1 µM
[21] = second compound 0.00949 µM, first compound 0.316 µM
[22] = second compound 0.00949 µM, first compound 1 µM
[23] = second compound 0.00949 µM, first compound 3.16 µM
[24] = second compound 0.00949 µM, first compound 10 µM
[25] = second compound 0.03 µM, first compound 0.0316 µM
[26] = second compound 0.03 µM, first compound 0.1 µM
[27] = second compound 0.03 µM, first compound 0.316 µM
[28] = second compound 0.03 µM, first compound 1 µM
[29] = second compound 0.03 µM, first compound 3.16 µM
[30] = second compound 0.03 µM, first compound 10 µM
[31] = second compound 0.0949 µM, first compound 0.0316 µM
[32] = second compound 0.0949 µM, first compound 0.1 µM
[33] = second compound 0.0949 µM, first compound 0.316 µM
[34] = second compound 0.0949 µM, first compound 1 µM
[35] = second compound 0.0949 µM, first compound 3.16 µM
[36] = second compound 0.0949 µM, first compound 10 µM
[37] = second compound 0.3 µM, first compound 0.0316 µM
[38] = second compound 0.3 µM, first compound 0.1 µM
[39] = second compound 0.3 µM, first compound 0.316 µM
[40] = second compound 0.3 µM, first compound 1 µM
[41] = second compound 0.3 µM, first compound 3.16 µM
[42] = second compound 0.3 µM, first compound 10 µM
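Also: spheroids exposed to compound for seven days before viability readout.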

- IC50 (curve of compound): < 3.16 nM
SMILES: O=C(c1ccc(F)c(F)c1Nc1ccc(I)cc1F)N1CC(O)([C@@H]2CCCCN2)C1
- viability, T/C (compound 0.00316 µM): 35.9% [middle of 4 runs]
- viability, T/C (compound 0.01 µM): 35.3% [middle of 4 runs]
- viability, T/C (compound 0.0316 µM): 33% [middle of 4 runs]
- viability, T/C (compound 0.1 µM): 12.2% [middle of 4 runs]
- viability, T/C (compound 0.316 µM): 7.62% [middle of 4 runs]
- viability, T/C (compound 1 µM): 6.03% [middle of 4 runs]

- IC50 (curve of compound): 87.8 nM [middle of 4 runs]
SMILES: CC1(O)CCCC1n1c(=O)c(C(F)F)cc2cnc(NC3CCN(S(C)(=O)=O)CC3)nc21 (stereo not drawn)
- viability, T/C (compound 0.0316 µM): 79.5% [middle of 4 runs]
- viability, T/C (compound 0.1 µM): 43% [middle of 4 runs]
- viability, T/C (compound 0.316 µM): 26.1% [middle of 4 runs]
- viability, T/C (compound 1 µM): 22.1% [middle of 4 runs]
- viability, T/C (compound 3.16 µM): 19.5% [middle of 4 runs]
- viability, T/C (compound 10 µM): 2.67% [middle of 4 runs]

- IC50 [1]: > 10000 nM
- IC50 [2]: > 10000 nM
- IC50 [3]: > 10000 nM
- IC50 [4]: > 10000 nM
- IC50 [5]: > 10000 nM
- IC50 [6]: > 10000 nM
SMILES: NC1c2ccccc2OC12CCN(c1cnc3c(N4CCCc5ncccc54)n[nH]c3n1)CC2 (stereo not drawn) + CCn1c(-c2cc(N3CCN(C)CC3)cnc2C(C)OC)c2c3cc(ccc31)-c1csc(n1)CC(NC(=O)C1CC1C)C(=O)N1CCCC(N1)C(=O)OCC(C)(C)C2
- viability, T/C [7]: 91.7%
- viability, T/C [8]: 98.8%
- viability, T/C [9]: 111%
- viability, T/C [10]: 90.2%
- viability, T/C [11]: 86.5%
- viability, T/C [12]: 76.8%
- viability, T/C [13]: 98.1%
- viability, T/C [14]: 120%
- viability, T/C [15]: 105%
- viability, T/C [16]: 102%
- viability, T/C [17]: 95.6%
- viability, T/C [18]: 76.8%
- viability, T/C [19]: 116%
- viability, T/C [20]: 102%
- viability, T/C [21]: 97.1%
- viability, T/C [22]: 98%
- viability, T/C [23]: 90.7%
- viability, T/C [24]: 73.9%
- viability, T/C [25]: 113%
- viability, T/C [26]: 102%
- viability, T/C [27]: 111%
- viability, T/C [28]: 107%
- viability, T/C [29]: 102%
- viability, T/C [30]: 72.3%
- viability, T/C [31]: 114%
- viability, T/C [32]: 88%
- viability, T/C [33]: 110%
- viability, T/C [34]: 107%
- viability, T/C [35]: 116%
- viability, T/C [36]: 78.5%
- viability, T/C [37]: 103%
- viability, T/C [38]: 105%
- viability, T/C [39]: 113%
- viability, T/C [40]: 93.9%
- viability, T/C [41]: 104%
- viability, T/C [42]: 64.8%

- IC50 [1]: 840 nM
- IC50 [2]: 1320 nM
- IC50 [3]: 793 nM
- IC50 [4]: 795 nM
- IC50 [5]: 1060 nM
- IC50 [6]: 629 nM
SMILES: CCC(CC)c1cc(NC2CCC(N)C2)n2nccc2n1 (stereo not drawn) + CCn1c(-c2cccnc2C(C)OC)c2c3cc(ccc31)N1CCOC(CC(NC(=O)C(C(C)C)N(C)C(=O)C3(F)CCN(C(=O)C#CC(C)(C)N(C)C)CC3)C(=O)N3CCCC(N3)C(=O)OCC(C)(C)C2)C1
- viability, T/C [7]: 105%
- viability, T/C [8]: 105%
- viability, T/C [9]: 87.2%
- viability, T/C [10]: 45.2%
- viability, T/C [11]: 2.1%
- viability, T/C [12]: 2.24%
- viability, T/C [13]: 101%
- viability, T/C [14]: 94.5%
- viability, T/C [15]: 72.7%
- viability, T/C [16]: 66.2%
- viability, T/C [17]: 2.87%
- viability, T/C [18]: 1.93%
- viability, T/C [19]: 123%
- viability, T/C [20]: 105%
- viability, T/C [21]: 86%
- viability, T/C [22]: 44.8%
- viability, T/C [23]: 2.14%
- viability, T/C [24]: 2.37%
- viability, T/C [25]: 106%
- viability, T/C [26]: 85.5%
- viability, T/C [27]: 97.8%
- viability, T/C [28]: 38.5%
- viability, T/C [29]: 2.21%
- viability, T/C [30]: 2.43%
- viability, T/C [31]: 95.2%
- viability, T/C [32]: 78.8%
- viability, T/C [33]: 91.1%
- viability, T/C [34]: 52.4%
- viability, T/C [35]: 2.89%
- viability, T/C [36]: 2.25%
- viability, T/C [37]: 80%
- viability, T/C [38]: 68.8%
- viability, T/C [39]: 81.8%
- viability, T/C [40]: 31.9%
- viability, T/C [41]: 2.89%
- viability, T/C [42]: 3.28%
